In patent US20090130085A1, “Amidino-Compounds for Stabilizing Factor VII Polypeptide Formulations” (NOVO NORDISH HEALTHCARE AG, priority 2005, published 2009):

Biological target: T1, rhFVIIa (Homo sapiens, UniProt P08709)
T1 construct: Typically, Factor VII is cleaved between amino acid residues 152 and 153 to yield Factor VIIa
T1 sequence (P08709 61-212 limits assumed): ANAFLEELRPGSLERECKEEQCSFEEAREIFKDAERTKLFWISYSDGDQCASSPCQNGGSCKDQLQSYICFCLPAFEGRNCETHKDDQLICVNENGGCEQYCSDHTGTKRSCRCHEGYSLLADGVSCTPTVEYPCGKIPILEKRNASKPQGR
T1 sequence (P08709 213-466 limits assumed): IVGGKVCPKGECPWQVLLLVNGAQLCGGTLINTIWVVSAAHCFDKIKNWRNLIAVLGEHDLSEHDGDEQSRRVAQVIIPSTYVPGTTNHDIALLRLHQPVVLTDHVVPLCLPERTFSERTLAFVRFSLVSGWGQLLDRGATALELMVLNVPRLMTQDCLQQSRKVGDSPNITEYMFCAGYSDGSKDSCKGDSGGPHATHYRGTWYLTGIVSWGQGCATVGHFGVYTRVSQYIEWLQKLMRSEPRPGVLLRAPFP
Test: Clot assay / one-stage coagulation assay of stored rhFVIIa formulations
Type: biochemical
Details: 1 mM compound in 1.0 mg/mL rhFVIIa formulation, pH 6.5, stored at 5° C. and 25° C.
Excerpt: The biological activity of Factor VII (as Factor VIIa) in blood clotting derives from its ability to (i) bind to tissue factor (TF) and (ii) catalyze the proteolytic cleavage of Factor IX or Factor X to produce activated Factor IX or X (Factor IXa or Xa, respectively). Human Factor VIIa biological activity may be quantified by an assay measuring the ability of a preparation to promote blood clotting using Factor VII-deficient plasma and thromboplastin, as described, e.g., in U.S. Pat. No. 5,997,864. In this assay, biological activity is expressed as the reduction in clotting time relative to a control sample and is converted to “Factor VII units” by comparison with a pooled human […] standard containing 1 unit/ml Factor VII activity. […] Coagulation times (clotting times) are measured and compared to a standard curve using a reference standard in a parallel line assay. Alternatively, Factor VIIa biological activity may be quantified by (i) measuring the ability of Factor VIIa to produce Factor Xa in a system comprising TF embedded in a lipid membrane and Factor X. (Persson et al., J. Biol. Chem. 272:19919-19924, 1997); (ii) measuring Factor X hydrolysis in an aqueous system; (iii) measuring its physical binding to TF using an instrument based on surface plasmon resonance (Persson, FEBS Letts. 413:359-363, 1997) and (iv) measuring hydrolysis of a synthetic substrate. […]

stabilizing effect with respect to retention of activity of FVIIa: marked stabilizing effect
SMILES: COc1cccc([C@H](C)NC(=O)COC(=O)Nc2ccc(C(=N)N)cc2)c1 [Example 1, (S)-(4-carbamimidoylphenyl)carbamic acid [1-(3-methoxyphenyl)ethylcarbamoyl]methyl ester]
